Source: patent US10086066B2, “Tissue targeted antigenic activation of the immune response to treat cancers” (Qu Biologics Inc., priority 2004, dated 2018)

Tested on: 4T1 mammary carcinoma cells
Test: Indomethacin efficacy study QB35, 4T1 mammary carcinoma (tumour volume, CD11b+ cells)
Type: in vivo, mouse (Balb/c)
Method: In an effort to examine the efficacy of combining antigenic composition treatment with indomethacin. Briefly, experiments were designed wherein there were 10 mice in each of 4 groups with all treatments beginning on day 4 after tumour inoculation. All mice (Balb/c female) received 50,000 4T1 mammary carcinoma cells subQ on day 0. Thereafter, the 4 groups were treated as follows: 1) Indomethacin daily (in drinking water)+PBS subQ every 2 days; 2) Indomethacin daily (in drinking water)+S. aureus SSI subQ every 2 days; 3) Control vehicle daily (in drinking water)+PBS subQ every 2 days; and 4) Control vehicle daily (in drinking water)+S. aureus SSI subQ every 2 days.

With `COc1ccc2c(c1)c(CC(=O)O)c(C)n2C(=O)c1ccc(Cl)cc1` [Indomethacin] the “frequency of CD11b+ cells in the tumors relative to the control” value (day 11, indomethacin daily in drinking water, with PBS or S. aureus SSI (FIG. 35)) was “significantly increased” and the “CD11b+ cells in the tumours” value (day 22 (FIG. 36)) was “increase”.
